# Reference: a melting point compilation (Tetko et al.; mined from patent text by program, amines drawn as free bases though some values may be those of a salt)
# Residues, ends and D or L forms follow the SMILES beside them.
row,melting point [°C],Structure (SMILES)
1,238 to 240,CCC(=O)NN=C(c1ccc(Cl)cc1)c1ccc(NS(=O)(=O)c2ccccc2)cc1
2,270,Cc1ccsc1-c1[nH]nc2c1C(=O)c1c(NC(N)=O)cccc1-2
3,169 to 170,COc1cc(CCCCC2OC(=O)NC2=O)ccc1OCc1coc(/C=C/c2ccc3ccccc3c2)n1 (stereo not given)
4,226 to 228,O=C1c2ccc([N+](=O)[O-])cc2C(=O)c2c(O)ccc(O)c21
5,89,CCOC(=O)c1ccc2c(c1)OC(c1cc(Cl)cc(Cl)c1)(c1cc(Cl)cc(Cl)c1)O2
6,126 to 128,CC(C)(C)c1ccc(C(=O)c2ccccc2O)c(C(C)(C)C)c1O
7,153 to 155,CCOC(=O)c1c(CC(=O)O)n(-c2ccc(OC(C)C)cc2)c2ccc(Oc3ccc(CCl)cn3)cc12
8,233 to 235,CCOC(=O)c1nc2ccc(N)cc2c(=O)[nH]1
9,194,COc1ccc(C(=Cn2cc[nH]c2=O)CC(=O)O)cc1OC1CCCC1
10,141 to 142,CC(=O)Nc1onc(-c2ccccc2)c1Cl
11,158 to 160,CN(C(=O)CN1C(=O)C(NC(=O)Nc2cccc(N)c2)N=C(CN2CCOCC2)c2ccccc21)c1ccccc1 (stereo not given)
12,109 to 110,CCOC(=O)c1c(O)c2ccc(Cl)cc2c(=O)n1C
13,203 to 206,Cc1cc(C)nc(NC(=O)NS(=O)(=O)c2cccc3c2OC(C)(C)C3)n1
14,110,CCCCC(=O)Nc1cscc1N
15,97 to 98,CN(C(=O)OCc1ccccc1)[C@@H](CCC(=O)O)C(=O)O
16,108,CCCCCCc1ccc(C(=O)Cc2ccc(Br)cc2)cc1
17,234 to 236,CSCCC(N)C(=O)NC(CCSC)C(=O)O (stereo not drawn) (H-Met-Met-OH; configuration not given here)
18,221 to 222,Cc1ccc(Cl)cc1NC(=S)Nc1cc[nH]n1
19,178 to 180,CC(C)(C)OC(=O)N[C@@H](CC(=O)OCc1ccccc1)C(=O)NCCc1ccc(OCC(=O)OCc2ccccc2)cc1
20,185 to 195,COc1cc(N2CCC(N3CCOCC3)CC2)ccc1-c1nc2c(N[C@H]3[C@@H](C(N)=O)[C@@H]4C=C[C@H]3C4)c(Br)cnc2[nH]1
21,63 to 64,C[C@@H]1Cc2cc([N+](=O)[O-])ccc2N1
22,94 to 95,Cc1oc(-c2ccco2)nc1COc1ccc(COc2nn(Cc3ccccc3)cc2CO)cn1

row,melting point [°C],Structure (SMILES)
1,159 to 162,CC(=O)NC1Cc2cn(S(=O)(=O)c3c(C(C)C)cc(C(C)C)cc3C(C)C)c3cccc(c23)C1=O (stereo not given)
2,110 to 114,Cc1cc(F)ccc1NC(=O)CCC#Cc1ccccn1
3,152,O=C1NC(=O)C(Nc2ccc(CCNCC(O)COc3ccc(OCc4ccccc4)cc3)cc2)S1 (stereo not given)
4,152 to 154,CC(=O)N1C(=O)c2ccccc2N(C(C)=O)C1C(Cl)(Cl)Cl (stereo not given)
5,60 to 62,CNn1cc(-c2ccccc2)c2ccccc21
6,209 to 211,CC1(CS)C(=O)N2CCCC(C(=O)O)N2C1=O (stereo not given)
7,186 to 187,Cc1c(NC(=O)c2ccc(-c3ccc(F)cc3)cc2F)ccc2cc(CN3CCCCC3)cnc12
8,149 to 150,CC(C)n1nc(-c2c(-c3ccccc3)nn3ccc(OCCN4CCCC4)cc23)ccc1=O
9,89 to 90,N#CC(c1ccc(C(F)(F)F)cc1)N1CCOCC1 (stereo not given)
10,111 to 113,O=[N+]([O-])c1ccc(Oc2ccc(C(F)(F)F)cc2Cl)cc1Oc1ccc(C(F)(F)F)cc1Cl
11,51 to 56,CC(CN=C1c2cccc3cccc(c23)N1C(c1ccccc1)c1ccccc1)Cn1ccnc1 (stereo not given)
12,261 to 262,Cc1c(C(=O)Nc2cccc(C#N)c2N2CCC(O)CC2)cnn1C
13,187 to 190,Cc1ccc(N)c(C(=O)Nc2cccnc2Cl)c1
14,252 to 255,Nc1cc2c(Nc3ccc(F)c(C(F)(F)F)c3)ncnc2cn1
15,92 to 94,c1ccc(N2CCN(CCCc3[nH]nc4c3CCCC4)CC2)cc1
16,95 to 97.5,Cn1c(CC#N)ccc1C(=O)c1ccc(C(F)(F)F)cc1
17,95 to 98,c1ccc([C@H]2OC[C@@H](OCc3ccccn3)CO2)cc1
18,191 to 192,CCOC(=O)N1CCC2CN(c3c(F)cc4c(=O)c(C(=O)O)cn(C5CC5)c4c3F)CC21 (stereo not given)
19,55 to 58,COC(=O)Cc1ccc(C#C[Si](C)(C)C)cc1
20,121 to 122,CCCCc1nn(-c2ccc(C(F)(F)F)cn2)cc1CCCOc1c(CC(=O)O)cccc1OC
21,90 to 93,CC(=O)OC[C@@H](C)[C@H]1CC[C@H]2[C@@H]3C=CC4=CC(=O)C=C[C@]4(C)[C@H]3CC[C@]12C
22,146 to 148,COC(=O)c1ccc(OCC2CN(c3ccc(Cl)cc3)C(=O)O2)cc1 (stereo not given)

row,melting point [°C],Structure (SMILES)
1,48 to 49,CC(=O)O[C@H]1C=C[C@@H](O)C1
2,88 to 90,Cc1sc2c(c1CCN1CCC(c3noc4cc(F)ccc34)CC1)CCNC2
3,139 to 141,O=C1c2ccccc2C(=O)C1c1cccc(O)c1
4,181,COC(=O)C(C)(N)Cc1c[nH]c2ccc(Br)cc12 (racemic)
5,181 to 182,CCNC(=NC#N)NCCSCc1csc(NC(=N)N)n1
6,230 to 232,COc1ccnc(CCc2nc3cc(-c4ccc(S(=O)(=O)N5CCNC(=O)CC5)cc4)cnc3[nH]2)c1
7,128 to 130,O=c1c(Cl)c(S(=O)C2CCCCC2)cnn1-c1ccccc1 (stereo not given)
8,190 to 191,CCOC(=O)CNC(=O)c1cn2nc(Cl)ccc2n1
9,143 to 145,CC(=O)NCCOc1cc(N)c(Cl)cc1C(=O)NCCN(C)C
10,140,COC(=O)CC1Oc2ccccc2NC1=O (stereo not given)
11,218,CN1CCC(N(C2CC2)S(=O)(=O)c2ccc(Nc3nccc(Nc4ccc(F)cc4)n3)cc2)CC1
12,169 to 171,O=COC(Cc1ccccc1)C1C(=O)NC1SC(c1ccccc1)(c1ccccc1)c1ccccc1 (stereo not given)
13,109 to 110,COc1ccc(OC(=O)C2CCCc3ccc([N+](=O)[O-])cc32)cc1 (stereo not given)
14,120 to 121,CON=C(C)c1ccc(-c2ccc(C(=O)n3ccc4cc(OC)c(OCCN(C)C)cc43)cc2)c(C)c1
15,121 to 123,COP(=O)(Cc1cc(C)c(CP(=O)(OC)OC)cc1C)OC
16,161 to 167,COC(=O)C1(OC)CC(O)C(NC(C)=O)C(C(O)C(O)CO)O1 (stereo not given)
17,144 to 145,COc1ccc(N2CCN(c3c(C)c(C)c4c(c3C)C(N3CCc5ccccc5C3)C(C)(C)O4)CC2)cc1 (stereo not given)
18,235,Cc1c(C(=O)c2ccc(O)cc2)oc2ccc([N+](=O)[O-])cc12
19,171 to 174,CCN1CCCC1CNC(=O)c1cc(-n2cnnn2)ccc1OC (stereo not given)
20,74 to 75,CCOC(=O)c1nc2ccccc2nc1C
21,147 to 148,CC(C)(C)c1csc(COc2cccc(C(=O)Nc3cc(CCCS(=O)(=O)c4ccc(Cl)cc4)ccc3OCC(N)=O)c2)n1
22,50 to 52,CCCCCCCCCCCCCCCCCC(=O)SC1CCN(C(C(=O)OC)c2ccccc2F)CC1 (stereo not given)

row,melting point [°C],Structure (SMILES)
1,51 to 61,CCCc1ccc(NC(=O)c2cccnc2NCc2ccc(OC)nc2)cc1C(F)(F)F
2,137 to 138,CCn1c(Oc2cccc(NC(N)=O)c2)nnc1[C@@H](C)NS(=O)(=O)c1ccc(Cl)c(Cl)c1
3,146,O=C(C=Cc1cc([N+](=O)[O-])ccc1Cl)N1CCc2c([nH]c3ccccc23)C1c1ccc2c(c1)OCO2 (stereo not given)
4,152 to 154,CC(C)[C@H](NC(=O)CC[C@H](C)CNC(=O)Cc1ccccc1)[C@@H](O)c1c(-c2ccccc2)c1=O
5,188 to 189,COC(=O)c1sc(C)c2ncn(Cc3ccc(-c4ccccc4-c4nnn[nH]4)cc3)c12
6,94 to 97,COC1CC(OCc2ccccc2)C(OS(=O)(=O)c2ccc(C)cc2)C(COC(c2ccccc2)(c2ccccc2)c2ccccc2)O1 (stereo not given)
7,89 to 90,CCOC(CCNC(=O)CCC(=O)NCCC(OCC)OCC)OCC
8,178 to 181,CCCCn1c(=O)c(NC(=O)Nc2c(C(C)C)cccc2C(C)C)c(-c2cccc(OC)c2)c2cccnc21
9,112,Nc1scc(CN2CCN(c3ccccc3)CC2)c1C(=O)c1ccc(Cl)cc1
10,121 to 123,Oc1cc2c(cc1O)OCC(c1cccc(F)c1)C2 (stereo not given)
11,239 to 241,O=c1[nH]c(-c2ccc(O)cc2)cc2ccccc12
12,74 to 76,N#CCN1C(=O)CC=C(C2(c3ccccc3)C=C3C=CC=CN3N2)N1C1=CCCCC1 (stereo not given)
13,80 to 90,CC(C)c1cccc(C(C)C)c1NC(=O)Nc1nnn(CCCCCCCCCCCCO)n1
14,60 to 61,CC1(C)OCC([N+](=O)[O-])CO1
15,81 to 82,COCOc1ccc(C=CC(=O)C=Cc2ccc(OCOC)c(OC)c2)cc1OC
16,230 to 232,O=c1[nH]c2cc(Cl)cc(Cl)c2c(=O)n1CCc1ccccc1
17,120 to 122,CSC(=NC(C)=O)Nc1ccccc1[N+](=O)[O-]
18,164 to 166,CC(=O)c1cc2c(s1)CCCc1cc(=O)n(-c3ccc(Cl)cc3)nc1-2
19,120,CN(C)CCC1(CO)c2ccccc2N(C)c2cc(Cl)ccc21 (stereo not given)
20,190 to 194,CCc1cnc(N2CCC(c3ccc4oc(-c5ccc(S(C)(=O)=O)cc5F)nc4c3)CC2)nc1
21,175 to 178,O=C(Nc1ccc(N2CCCCC2)cc1)N(C[C@H]1CC[C@H](CN(C(=O)Nc2ccc(N3CCCCC3)cc2)C2CCCCCC2)CC1)C1CCCCCC1
22,266 to 268,Cn1c([N+](=O)[O-])cnc1-c1nnc(N)s1

row,Structure (SMILES),melting point [°C]
1,CCCCCCC(C)(C)c1ccc([C@@H]2CC(=O)C[C@@H](C#N)C2)c(OCc2ccccc2)c1 (relative stereo),79
2,CCCc1c(C(=O)C(C)C)c2ccc(CC(N)=O)cc2n1Cc1cc2c(cc1Cl)OCO2,136 to 138
3,O=[N+]([O-])c1ccccc1C(Cl)Cl,25.6 to 26.7
4,CC(C)OC1=CC2=CCC3C4CCC(=O)C4(C)CCC3C2(C)CC1 (stereo not given),147 to 151
5,CNC(=O)Oc1cc(C)c(NC(=O)C(F)(F)Cl)c(C)c1,163 to 165
6,N#CC1CN1C(=O)NC(=O)c1ccc(Cl)cc1 (stereo not given),160 to 162
7,O=C(O)CC1C(CCl)=CCC1O (stereo not given),33 to 34
